# Species on record: Rattus norvegicus
# Assay: DrugMatrix - Regimen: Daily Repeat
# Format: toxicity, organism-based, Sprague-Dawley
# Set-up: regimen Daily Repeat, gender Male, age 6-8 weeks
# Conditions: in vivo, po, route oral GAVAGE; for ABSOLUTE BASOPHIL / ABSOLUTE EOSINOPHIL / ABSOLUTE LYMPHOCYTE / ABSOLUTE MONOCYTE / ABSOLUTE SEGMENTED NEUTROPHIL / BASOPHIL / EOSINOPHIL / ERYTHROCYTE COUNT / HEMATOCRIT / HEMOGLOBIN / LEUKOCYTE COUNT / LYMPHOCYTE / MEAN CORPUSCULAR HEMOGLOBIN / MEAN CORPUSCULAR HEMOGLOBIN CONCENTRATION / MEAN CORPUSCULAR VOLUME / MONOCYTE / NEUTROPHIL / NUCLEATED RED BLOOD CELLS / PLATELET COUNT: tissue Blood; for ALANINE AMINOTRANSFERASE / ALBUMIN / ALKALINE PHOSPHATASE / ASPARTATE AMINOTRANSFERASE / BLOOD UREA NITROGEN / CARBON DIOXIDE / CHLORIDE / CHOLESTEROL / CREATINE PHOSPHOKINASE / CREATININE / GLUCOSE / LACTATE DEHYDROGENASE / LIPASE / PHOSPHORUS / POTASSIUM / SODIUM / TOTAL BILIRUBIN / TOTAL PROTEIN / URIC ACID: tissue Plasma
# [1] = […], 72 h, dose 1.7 mg/Kg, dose level Low, time 3 day
# [2] = […], 120 h, dose 1.7 mg/Kg, dose level Low, time 5 day
# [3] = 0 mg/kg, 72 h, dose level Control, time 3 day, vehicle .5 % CMC
# [4] = 0 mg/kg, 120 h, dose level Control, time 5 day, vehicle .5 % CMC
# [5] = 0 mg/kg, […], dose level Control, time 14 day, vehicle .5 % CMC
smiles,measurement,setting,value
C#C[C@]1(OC(C)=O)CC[C@H]2[C@@H]3CCC4=CC(=O)CC[C@@H]4[C@H]3CC[C@@]21C [NORETHINDRONE ACETATE],ABSOLUTE BASOPHIL,[1],0 CELLS/uL
same,ABSOLUTE EOSINOPHIL,[1],0 CELLS/uL
same,ABSOLUTE LYMPHOCYTE,[1],14146.67 CELLS/uL
same,ABSOLUTE MONOCYTE,[1],167 CELLS/uL
same,ABSOLUTE SEGMENTED NEUTROPHIL,[1],1486.33 CELLS/uL
same,BASOPHIL,[1],0%
same,EOSINOPHIL,[1],0%
same,ERYTHROCYTE COUNT,[1],5.62 x10E6/uL
same,HEMATOCRIT,[1],33.97%
same,HEMOGLOBIN,[1],13.3 G/DL
same,LEUKOCYTE COUNT,[1],15.8 x10E3/uL
same,LYMPHOCYTE,[1],89.33%
same,MEAN CORPUSCULAR HEMOGLOBIN,[1],23.7 pg
same,MEAN CORPUSCULAR HEMOGLOBIN CONCENTRATION,[1],39.17 G/DL
same,MEAN CORPUSCULAR VOLUME,[1],60.5 fL
same,MONOCYTE,[1],1%
same,NEUTROPHIL,[1],9.67%
same,NUCLEATED RED BLOOD CELLS,[1],0 /100WBC
same,PLATELET COUNT,[1],1255.67 x10E3/uL
same,ALANINE AMINOTRANSFERASE,[1],61.67 u/L
same,ALBUMIN,[1],4.07 G/DL
same,ALKALINE PHOSPHATASE,[1],473.33 u/L
same,ASPARTATE AMINOTRANSFERASE,[1],85 u/L
same,BLOOD UREA NITROGEN,[1],14.33 mg/dL
same,CARBON DIOXIDE,[1],26.67 mmol/L
same,CHLORIDE,[1],99.67 MEQ/L
same,CHOLESTEROL,[1],62.33 mg/dL
same,CREATINE PHOSPHOKINASE,[1],351 u/L
same,CREATININE,[1],0.17 mg/dL
same,GLUCOSE,[1],158.33 mg/dL
same,LACTATE DEHYDROGENASE,[1],371.33 u/L
same,LIPASE,[1],10.33 u/L
same,PHOSPHORUS,[1],12.87 mg/dL
same,POTASSIUM,[1],6.54 MEQ/L
same,SODIUM,[1],143.43 MEQ/L
same,TOTAL BILIRUBIN,[1],0.17 mg/dL
same,TOTAL PROTEIN,[1],5.73 G/DL
same,URIC ACID,[1],1.37 mg/dL
same,ABSOLUTE BASOPHIL,[2],0 CELLS/uL
same,ABSOLUTE EOSINOPHIL,[2],62 CELLS/uL
same,ABSOLUTE LYMPHOCYTE,[2],13760.33 CELLS/uL
same,ABSOLUTE MONOCYTE,[2],100.67 CELLS/uL
same,ABSOLUTE SEGMENTED NEUTROPHIL,[2],1110.33 CELLS/uL
same,BASOPHIL,[2],0%
same,EOSINOPHIL,[2],0.33%
same,ERYTHROCYTE COUNT,[2],5.76 x10E6/uL
same,HEMATOCRIT,[2],36.33%
same,HEMOGLOBIN,[2],14.4 G/DL
same,LEUKOCYTE COUNT,[2],15.03 x10E3/uL
same,LYMPHOCYTE,[2],91.67%
same,MEAN CORPUSCULAR HEMOGLOBIN,[2],25.07 pg
same,MEAN CORPUSCULAR HEMOGLOBIN CONCENTRATION,[2],39.67 G/DL
same,MEAN CORPUSCULAR VOLUME,[2],63.17 fL
same,MONOCYTE,[2],0.67%
same,NEUTROPHIL,[2],7.33%
same,NUCLEATED RED BLOOD CELLS,[2],0 /100WBC
same,PLATELET COUNT,[2],1087.33 x10E3/uL
same,ALANINE AMINOTRANSFERASE,[2],65.33 u/L
same,ALBUMIN,[2],4.13 G/DL
same,ALKALINE PHOSPHATASE,[2],463.33 u/L
same,ASPARTATE AMINOTRANSFERASE,[2],99 u/L
same,BLOOD UREA NITROGEN,[2],16 mg/dL
same,CARBON DIOXIDE,[2],28.67 mmol/L
same,CHLORIDE,[2],98.67 MEQ/L
same,CHOLESTEROL,[2],59.33 mg/dL
same,CREATINE PHOSPHOKINASE,[2],362.33 u/L
same,CREATININE,[2],0.2 mg/dL
same,GLUCOSE,[2],142 mg/dL
same,LACTATE DEHYDROGENASE,[2],548.33 u/L
same,LIPASE,[2],10.33 u/L
same,PHOSPHORUS,[2],12.73 mg/dL
same,POTASSIUM,[2],6.67 MEQ/L
same,SODIUM,[2],145.33 MEQ/L
same,TOTAL BILIRUBIN,[2],0.23 mg/dL
same,TOTAL PROTEIN,[2],5.93 G/DL
same,URIC ACID,[2],1.63 mg/dL
O=[N+]([O-])c1ccccc1 [NITROBENZENE],BASOPHIL,[3],0.62%
same,EOSINOPHIL,[3],0.52%
same,ERYTHROCYTE COUNT,[3],6.33 x10E6/uL
same,HEMATOCRIT,[3],41.88%
same,HEMOGLOBIN,[3],13.52 G/DL
same,LEUKOCYTE COUNT,[3],11.39 x10E3/uL
same,LYMPHOCYTE,[3],86.18%
same,MEAN CORPUSCULAR HEMOGLOBIN,[3],21.35 pg
same,MEAN CORPUSCULAR HEMOGLOBIN CONCENTRATION,[3],32.23 G/DL
same,MEAN CORPUSCULAR VOLUME,[3],66.25 fL
same,MONOCYTE,[3],1.93%
same,NEUTROPHIL,[3],9.1%
same,PLATELET COUNT,[3],1204.5 x10E3/uL
same,ALANINE AMINOTRANSFERASE,[3],43 u/L
same,ALBUMIN,[3],4.08 G/DL
same,ALKALINE PHOSPHATASE,[3],426.33 u/L
same,ASPARTATE AMINOTRANSFERASE,[3],72.5 u/L
same,BLOOD UREA NITROGEN,[3],16.67 mg/dL
same,CARBON DIOXIDE,[3],28.33 mmol/L
same,CHLORIDE,[3],103.5 MEQ/L
same,CHOLESTEROL,[3],78.83 mg/dL
same,CREATINE PHOSPHOKINASE,[3],325.67 u/L
same,CREATININE,[3],0.48 mg/dL
same,GLUCOSE,[3],171.67 mg/dL
same,LACTATE DEHYDROGENASE,[3],107.33 u/L
same,LIPASE,[3],11.83 u/L
same,PHOSPHORUS,[3],12.55 mg/dL
same,POTASSIUM,[3],6.57 MEQ/L
same,SODIUM,[3],145.67 MEQ/L
same,TOTAL BILIRUBIN,[3],0.42 mg/dL
same,TOTAL PROTEIN,[3],6.1 G/DL
same,URIC ACID,[3],1.57 mg/dL
same,BASOPHIL,[4],0.48%
same,EOSINOPHIL,[4],0.67%
same,ERYTHROCYTE COUNT,[4],6.69 x10E6/uL
same,HEMATOCRIT,[4],44.17%
same,HEMOGLOBIN,[4],13.78 G/DL
same,LEUKOCYTE COUNT,[4],7.86 x10E3/uL
same,LYMPHOCYTE,[4],85.9%
same,MEAN CORPUSCULAR HEMOGLOBIN,[4],20.6 pg
same,MEAN CORPUSCULAR HEMOGLOBIN CONCENTRATION,[4],31.25 G/DL
same,MEAN CORPUSCULAR VOLUME,[4],65.9 fL
same,MONOCYTE,[4],3.27%
same,NEUTROPHIL,[4],8.67%
same,PLATELET COUNT,[4],1182.33 x10E3/uL
same,ALANINE AMINOTRANSFERASE,[4],37.5 u/L
same,ALBUMIN,[4],4 G/DL
same,ALKALINE PHOSPHATASE,[4],348.17 u/L
same,ASPARTATE AMINOTRANSFERASE,[4],71.67 u/L
same,BLOOD UREA NITROGEN,[4],13 mg/dL
same,CARBON DIOXIDE,[4],27 mmol/L
same,CHLORIDE,[4],104.67 MEQ/L
same,CHOLESTEROL,[4],73.33 mg/dL
same,CREATINE PHOSPHOKINASE,[4],211.33 u/L
same,CREATININE,[4],0.23 mg/dL
same,GLUCOSE,[4],155 mg/dL
same,LACTATE DEHYDROGENASE,[4],133.83 u/L
same,LIPASE,[4],11.17 u/L
same,PHOSPHORUS,[4],14.53 mg/dL
same,POTASSIUM,[4],6.65 MEQ/L
same,SODIUM,[4],148.17 MEQ/L
same,TOTAL BILIRUBIN,[4],0.28 mg/dL
same,TOTAL PROTEIN,[4],6.22 G/DL
same,URIC ACID,[4],1.57 mg/dL
same,BASOPHIL,[5],0.97%
same,EOSINOPHIL,[5],0.8%
same,ERYTHROCYTE COUNT,[5],7.02 x10E6/uL
same,HEMATOCRIT,[5],44.43%
same,HEMOGLOBIN,[5],14.58 G/DL
same,LEUKOCYTE COUNT,[5],16.49 x10E3/uL
same,LYMPHOCYTE,[5],79.03%
same,MEAN CORPUSCULAR HEMOGLOBIN,[5],20.85 pg
same,MEAN CORPUSCULAR HEMOGLOBIN CONCENTRATION,[5],32.78 G/DL
same,MEAN CORPUSCULAR VOLUME,[5],63.57 fL
same,MONOCYTE,[5],1.9%
same,NEUTROPHIL,[5],15.18%
same,PLATELET COUNT,[5],1184.33 x10E3/uL
same,ALANINE AMINOTRANSFERASE,[5],43 u/L
same,ALBUMIN,[5],4.25 G/DL
same,ALKALINE PHOSPHATASE,[5],409.67 u/L
same,ASPARTATE AMINOTRANSFERASE,[5],84.17 u/L
same,BLOOD UREA NITROGEN,[5],16 mg/dL
same,CARBON DIOXIDE,[5],35.17 mmol/L
same,CHLORIDE,[5],99.83 MEQ/L
same,CHOLESTEROL,[5],68.67 mg/dL
same,CREATINE PHOSPHOKINASE,[5],384.17 u/L
same,CREATININE,[5],0.43 mg/dL
same,GLUCOSE,[5],160 mg/dL
same,LACTATE DEHYDROGENASE,[5],115.33 u/L
same,LIPASE,[5],17.33 u/L
same,PHOSPHORUS,[5],10.68 mg/dL
same,POTASSIUM,[5],6.48 MEQ/L
same,SODIUM,[5],148.17 MEQ/L
same,TOTAL BILIRUBIN,[5],0.45 mg/dL
same,TOTAL PROTEIN,[5],6.57 G/DL
same,URIC ACID,[5],1.78 mg/dL
